For one assay, the target named is T1, Mucolipin-3 (Homo sapiens, UniProt Q8TDD5).
T1 sequence (Q8TDD5 whole entry): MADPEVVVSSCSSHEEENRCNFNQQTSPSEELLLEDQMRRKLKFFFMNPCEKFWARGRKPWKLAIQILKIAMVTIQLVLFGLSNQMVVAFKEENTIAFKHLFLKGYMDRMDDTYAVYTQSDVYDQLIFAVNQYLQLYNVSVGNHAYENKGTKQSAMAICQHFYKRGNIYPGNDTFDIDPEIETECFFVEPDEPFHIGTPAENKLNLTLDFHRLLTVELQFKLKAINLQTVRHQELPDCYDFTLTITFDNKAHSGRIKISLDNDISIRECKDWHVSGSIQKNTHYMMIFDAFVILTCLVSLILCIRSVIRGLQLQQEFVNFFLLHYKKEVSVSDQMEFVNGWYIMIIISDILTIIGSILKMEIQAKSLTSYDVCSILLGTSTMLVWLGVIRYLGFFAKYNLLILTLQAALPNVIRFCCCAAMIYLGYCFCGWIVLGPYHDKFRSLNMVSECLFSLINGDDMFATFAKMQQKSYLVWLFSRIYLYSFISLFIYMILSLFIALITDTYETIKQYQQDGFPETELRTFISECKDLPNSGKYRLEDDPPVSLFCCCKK
The assay is described as follows: Fluorescence counterscreen assay for […] agonists: dose response cell-based high-throughput screening assay to identify agonists of the transient receptor potential channel ML3 (TRPML3). [Related pubchem assays: 1424, 1448 ]. The class given is functional. A general note: The purpose of a counterscreen is to sort out artefacts and off-target activity.

The test system of the next assay is INS1. As to the kind of experiment: beta cell apoptosis inhibitors, cytokine rescue, dose response, luminescence, retest (AID 449756).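 Note: cell death triggered by IL-1 beta plus TNF-alpha plus IFN-gamma mixture; protective hits raise ATP signal compared with cytokine alone wells.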 The assay is classed as functional, cell-based. To be noted: Rattus norvegicus.
A further assay concerns the target Ion channel NompC (Danio rerio, UniProt Q7T1G6). The assay is described as follows: Dose response cell-based high-throughput screening assay for agonists of the transient receptor potential channel N1 (TRPN1). [Related pubchem assays (depositor defined):AID1424, AID1448]. The assay is classed as functional.
Another assay has as its target T2, Galanin receptor type 3 (Homo sapiens, UniProt O60755).
T2 sequence (O60755 whole entry): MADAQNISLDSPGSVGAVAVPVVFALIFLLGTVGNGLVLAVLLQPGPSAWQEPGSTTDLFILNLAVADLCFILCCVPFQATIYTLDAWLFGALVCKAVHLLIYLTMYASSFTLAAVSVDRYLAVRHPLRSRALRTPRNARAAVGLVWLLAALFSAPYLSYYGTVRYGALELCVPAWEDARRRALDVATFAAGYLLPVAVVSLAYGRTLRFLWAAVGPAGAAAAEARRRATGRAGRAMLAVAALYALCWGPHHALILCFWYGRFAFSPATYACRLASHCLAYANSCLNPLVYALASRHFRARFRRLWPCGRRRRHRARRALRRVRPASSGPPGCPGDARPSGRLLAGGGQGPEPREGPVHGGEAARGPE
As to the kind of experiment: Fluorescence-based cell-based primary high throughput dose response assay to identify antagonists of the Galanin Receptor 3 (GalR3). The assay is classed as functional.

The next assay in a line: cells. The assay is classed as functional, cell-based. To be noted: HEK-CNG.
Another assay deals with Galanin receptor type 2 (Homo sapiens, UniProt O43603). As to the kind of experiment: Dose Response cell-based high-throughput screening assay to identify antagonists of galanin receptor 2 (GALR2). [Related pubchem assays: 828, 866 ]. The assay is classed as functional.
Assay [1] deals with HEK293. The assay is described as follows: cells. To be noted: Homo sapiens.
Assay [2] addresses T3, Nucleotide-binding oligomerization domain-containing protein 2 (Homo sapiens, UniProt Q9HC29). As to the kind of experiment: NOD2 signaling inhibitors, cell-based, luminescence, uHTS, HEK293 (AID 1566). The class given is functional.
Assay [3] concerns HEK293. The assay is described as follows: cells. To be noted: Homo sapiens. The assay is classed as functional, cell-based.
For assay [4], the system named is HEK293. As to the kind of experiment: cells. The assay is classed as functional, cell-based. To be noted: Homo sapiens. This is another data set of the same source.
For assay [5], the system named is HEK293. As to the kind of experiment: NOD1 signaling inhibitors, primary screen, cell-based, luminescence, uHTS (AID 1578). The assay is classed as functional. To be noted: Homo sapiens.
The subject of assay [6] is HEK293. The assay is described as follows: cells. Conditions: Homo sapiens. The assay is classed as functional, cell-based. This is another data set of the same source.
In assay [7] the target is Transitional endoplasmic reticulum ATPase (Homo sapiens, UniProt P55072). The assay is described as follows: p97 ATPase inhibitors, dose response, biochemical (AID 1534).
For assay [8], the target named is Transitional endoplasmic reticulum ATPase (Homo sapiens, UniProt P55072, C522A). The assay is described as follows: C522A mutant p97 ATPase inhibitors, dose response, counter-screen for p97 inhibitor project, biochemical, luminescence (AID 1544).
In assay [9] the test system is HEK293. As to the kind of experiment: NOD2 signaling inhibitors in MDP-stimulated cells, cell-based, uHTS, luminescence (AID 2001). The assay is classed as functional. Conditions: Homo sapiens.
In assay [10] the target is T4, Tumor necrosis factor (Homo sapiens, UniProt P01375). As to the kind of experiment: TNFa-triggered NF-kB activation inhibitors, SAR follow-up, cell-based, revised (AID 2337). The class given is functional.
Assay [11] concerns the target T3, Nucleotide-binding oligomerization domain-containing protein 2. As to the kind of experiment: PubChem AID 2334. The assay is classed as functional.
Assay [12] concerns the target T4, Tumor necrosis factor. The assay is described as follows: TNFa-triggered NF-kB activation inhibitors, SAR follow-up, cell-based, set 2 (AID 2483). The class given is functional.
The target of assay [13] is T3, Nucleotide-binding oligomerization domain-containing protein 2. As to the kind of experiment: NOD2 inhibitors, SAR follow-up, set 2 (AID 2475). The class given is functional.
The subject of assay [14] is HEK293. As to the kind of experiment: SAR analysis of compounds that are cytotoxic to HEK293 - Set 2. [Related pubchem assays (depositor defined):AID1575, AID1578, AID1849, AID2001, AID2333, AID2334, AID2335, AID2337, AID2800]. The class given is functional, cell-based. To be noted: Homo sapiens.
Assay [15] addresses T5, Nucleotide-binding oligomerization domain-containing protein 1 (Homo sapiens, UniProt Q9Y239).
T5 sequence (Q9Y239 whole entry): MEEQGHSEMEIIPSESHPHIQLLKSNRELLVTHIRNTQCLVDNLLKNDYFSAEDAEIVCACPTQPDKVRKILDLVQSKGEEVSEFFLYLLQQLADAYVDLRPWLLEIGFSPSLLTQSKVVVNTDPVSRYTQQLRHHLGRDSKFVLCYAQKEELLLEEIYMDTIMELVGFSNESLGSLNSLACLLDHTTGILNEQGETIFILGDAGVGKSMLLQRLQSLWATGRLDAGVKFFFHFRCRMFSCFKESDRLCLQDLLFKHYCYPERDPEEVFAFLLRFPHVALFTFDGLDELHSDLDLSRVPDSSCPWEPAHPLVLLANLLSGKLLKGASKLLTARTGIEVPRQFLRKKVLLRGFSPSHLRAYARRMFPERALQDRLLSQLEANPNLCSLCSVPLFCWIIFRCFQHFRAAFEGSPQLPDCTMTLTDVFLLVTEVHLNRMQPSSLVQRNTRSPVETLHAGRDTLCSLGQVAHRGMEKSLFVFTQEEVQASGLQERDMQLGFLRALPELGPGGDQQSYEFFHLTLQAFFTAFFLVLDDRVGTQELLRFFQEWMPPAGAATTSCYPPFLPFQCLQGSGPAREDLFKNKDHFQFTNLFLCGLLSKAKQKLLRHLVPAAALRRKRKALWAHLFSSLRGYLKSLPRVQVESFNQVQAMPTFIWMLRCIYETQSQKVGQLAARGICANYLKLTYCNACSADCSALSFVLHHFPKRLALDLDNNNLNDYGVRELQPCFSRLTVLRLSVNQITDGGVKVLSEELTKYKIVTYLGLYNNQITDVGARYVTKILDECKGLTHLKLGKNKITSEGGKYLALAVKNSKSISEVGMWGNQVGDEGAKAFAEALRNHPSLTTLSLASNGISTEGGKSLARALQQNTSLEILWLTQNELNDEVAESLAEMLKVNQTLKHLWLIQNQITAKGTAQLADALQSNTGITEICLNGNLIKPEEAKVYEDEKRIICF
The assay is described as follows: NOD1 signaling inhibitors, SAR follow-up, revised (AID 2333). The class given is functional.

Assay [16] has as its target T5, Nucleotide-binding oligomerization domain-containing protein 1. The assay is described as follows: SAR analysis of compounds that inhibit NOD1 - Set 2. [Related pubchem assays (depositor defined):AID1566, AID1575, AID1578, AID1849, AID1852, AID2333, AID2335, AID2798]. The class given is functional.

Active and inactive are the calls of the source.

T3 sequence (Q9HC29 whole entry, the tested form may be a part): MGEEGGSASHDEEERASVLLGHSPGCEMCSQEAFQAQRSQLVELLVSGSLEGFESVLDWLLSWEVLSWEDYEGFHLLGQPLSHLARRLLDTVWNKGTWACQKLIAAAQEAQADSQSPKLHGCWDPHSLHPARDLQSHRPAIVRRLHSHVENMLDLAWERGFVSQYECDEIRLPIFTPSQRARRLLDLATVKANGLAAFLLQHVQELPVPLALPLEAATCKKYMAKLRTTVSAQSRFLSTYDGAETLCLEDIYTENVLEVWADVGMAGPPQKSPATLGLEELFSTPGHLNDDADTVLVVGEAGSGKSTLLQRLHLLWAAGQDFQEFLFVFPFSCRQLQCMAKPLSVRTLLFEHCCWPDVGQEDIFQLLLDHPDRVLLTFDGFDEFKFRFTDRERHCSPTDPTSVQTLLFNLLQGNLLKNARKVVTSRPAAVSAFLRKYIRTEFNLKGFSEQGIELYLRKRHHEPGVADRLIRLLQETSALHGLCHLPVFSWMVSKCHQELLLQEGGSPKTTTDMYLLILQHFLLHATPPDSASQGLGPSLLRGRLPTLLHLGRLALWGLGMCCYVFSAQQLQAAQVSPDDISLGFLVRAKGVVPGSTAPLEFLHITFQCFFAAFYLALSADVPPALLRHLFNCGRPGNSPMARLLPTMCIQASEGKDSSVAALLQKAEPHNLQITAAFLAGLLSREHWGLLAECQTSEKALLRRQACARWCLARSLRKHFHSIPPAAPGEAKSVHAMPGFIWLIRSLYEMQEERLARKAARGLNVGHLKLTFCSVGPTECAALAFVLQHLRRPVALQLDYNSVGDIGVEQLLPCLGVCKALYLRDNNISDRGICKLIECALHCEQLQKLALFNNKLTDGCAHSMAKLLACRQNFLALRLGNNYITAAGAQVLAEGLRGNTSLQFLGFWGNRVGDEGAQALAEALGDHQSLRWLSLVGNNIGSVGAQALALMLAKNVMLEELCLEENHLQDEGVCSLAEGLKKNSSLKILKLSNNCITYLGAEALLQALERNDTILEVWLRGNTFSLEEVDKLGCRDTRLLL
T4 sequence (P01375 whole entry, the tested form may be a part): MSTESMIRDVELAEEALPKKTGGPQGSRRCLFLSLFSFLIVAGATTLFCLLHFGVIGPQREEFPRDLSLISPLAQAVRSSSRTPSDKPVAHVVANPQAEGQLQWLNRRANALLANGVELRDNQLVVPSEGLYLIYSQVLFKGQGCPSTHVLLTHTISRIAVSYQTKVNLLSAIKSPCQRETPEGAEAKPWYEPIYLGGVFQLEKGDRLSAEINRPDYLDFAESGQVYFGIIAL
Chain of Galanin receptor type 2 (O43603 whole entry): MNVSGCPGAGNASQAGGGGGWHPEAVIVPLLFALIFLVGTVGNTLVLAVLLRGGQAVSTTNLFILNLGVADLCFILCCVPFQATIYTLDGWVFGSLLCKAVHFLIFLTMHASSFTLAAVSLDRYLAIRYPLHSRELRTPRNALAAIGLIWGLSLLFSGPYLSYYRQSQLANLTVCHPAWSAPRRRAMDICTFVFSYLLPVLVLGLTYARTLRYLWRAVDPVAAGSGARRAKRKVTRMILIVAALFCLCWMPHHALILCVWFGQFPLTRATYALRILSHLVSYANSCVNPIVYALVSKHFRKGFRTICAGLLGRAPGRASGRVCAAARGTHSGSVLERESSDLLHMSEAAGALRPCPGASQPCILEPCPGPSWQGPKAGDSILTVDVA
Chain of Transitional endoplasmic reticulum ATPase (Homo sapiens, UniProt P55072, C522A) (P55072 2-806 C522A limits assumed): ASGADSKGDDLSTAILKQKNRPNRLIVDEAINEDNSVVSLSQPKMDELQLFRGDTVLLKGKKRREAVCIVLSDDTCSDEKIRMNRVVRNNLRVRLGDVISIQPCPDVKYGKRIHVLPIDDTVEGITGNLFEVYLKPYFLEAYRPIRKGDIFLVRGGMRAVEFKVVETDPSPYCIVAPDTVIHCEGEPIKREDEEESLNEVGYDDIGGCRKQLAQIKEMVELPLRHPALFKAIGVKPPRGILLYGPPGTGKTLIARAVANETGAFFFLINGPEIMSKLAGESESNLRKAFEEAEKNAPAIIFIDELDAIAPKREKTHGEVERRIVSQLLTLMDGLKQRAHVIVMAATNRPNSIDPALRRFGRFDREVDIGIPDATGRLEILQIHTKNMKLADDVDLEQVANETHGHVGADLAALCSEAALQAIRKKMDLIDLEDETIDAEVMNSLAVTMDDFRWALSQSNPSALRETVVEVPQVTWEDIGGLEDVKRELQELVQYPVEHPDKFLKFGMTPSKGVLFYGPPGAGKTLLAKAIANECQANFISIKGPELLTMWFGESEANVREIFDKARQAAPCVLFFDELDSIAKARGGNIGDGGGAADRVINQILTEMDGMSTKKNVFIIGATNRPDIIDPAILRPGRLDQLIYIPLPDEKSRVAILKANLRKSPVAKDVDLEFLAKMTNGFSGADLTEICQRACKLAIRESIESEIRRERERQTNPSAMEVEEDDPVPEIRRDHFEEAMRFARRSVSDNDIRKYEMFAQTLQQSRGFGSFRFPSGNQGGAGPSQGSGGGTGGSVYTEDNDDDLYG
Chain of Transitional endoplasmic reticulum ATPase (Homo sapiens, UniProt P55072) (P55072 whole entry): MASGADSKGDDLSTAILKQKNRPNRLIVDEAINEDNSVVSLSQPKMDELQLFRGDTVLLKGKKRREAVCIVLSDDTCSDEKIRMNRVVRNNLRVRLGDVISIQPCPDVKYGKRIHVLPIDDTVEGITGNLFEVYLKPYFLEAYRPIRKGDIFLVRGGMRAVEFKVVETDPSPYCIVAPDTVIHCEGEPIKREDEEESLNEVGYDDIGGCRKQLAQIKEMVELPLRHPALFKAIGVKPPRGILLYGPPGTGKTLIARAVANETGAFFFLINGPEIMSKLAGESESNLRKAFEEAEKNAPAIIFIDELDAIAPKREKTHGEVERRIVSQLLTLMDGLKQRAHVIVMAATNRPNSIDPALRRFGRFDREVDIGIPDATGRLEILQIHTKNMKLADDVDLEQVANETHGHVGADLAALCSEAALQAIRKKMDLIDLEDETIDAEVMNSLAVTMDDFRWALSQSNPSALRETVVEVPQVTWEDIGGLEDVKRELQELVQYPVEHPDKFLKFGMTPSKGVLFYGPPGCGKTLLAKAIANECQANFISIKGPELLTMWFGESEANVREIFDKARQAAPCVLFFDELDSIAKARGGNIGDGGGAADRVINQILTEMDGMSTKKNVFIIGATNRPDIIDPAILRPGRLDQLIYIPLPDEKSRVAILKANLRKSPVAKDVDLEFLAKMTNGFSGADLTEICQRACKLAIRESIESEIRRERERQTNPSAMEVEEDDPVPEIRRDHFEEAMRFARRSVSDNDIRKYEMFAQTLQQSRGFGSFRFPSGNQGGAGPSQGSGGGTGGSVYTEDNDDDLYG
Chain of Ion channel NompC (Q7T1G6 whole entry): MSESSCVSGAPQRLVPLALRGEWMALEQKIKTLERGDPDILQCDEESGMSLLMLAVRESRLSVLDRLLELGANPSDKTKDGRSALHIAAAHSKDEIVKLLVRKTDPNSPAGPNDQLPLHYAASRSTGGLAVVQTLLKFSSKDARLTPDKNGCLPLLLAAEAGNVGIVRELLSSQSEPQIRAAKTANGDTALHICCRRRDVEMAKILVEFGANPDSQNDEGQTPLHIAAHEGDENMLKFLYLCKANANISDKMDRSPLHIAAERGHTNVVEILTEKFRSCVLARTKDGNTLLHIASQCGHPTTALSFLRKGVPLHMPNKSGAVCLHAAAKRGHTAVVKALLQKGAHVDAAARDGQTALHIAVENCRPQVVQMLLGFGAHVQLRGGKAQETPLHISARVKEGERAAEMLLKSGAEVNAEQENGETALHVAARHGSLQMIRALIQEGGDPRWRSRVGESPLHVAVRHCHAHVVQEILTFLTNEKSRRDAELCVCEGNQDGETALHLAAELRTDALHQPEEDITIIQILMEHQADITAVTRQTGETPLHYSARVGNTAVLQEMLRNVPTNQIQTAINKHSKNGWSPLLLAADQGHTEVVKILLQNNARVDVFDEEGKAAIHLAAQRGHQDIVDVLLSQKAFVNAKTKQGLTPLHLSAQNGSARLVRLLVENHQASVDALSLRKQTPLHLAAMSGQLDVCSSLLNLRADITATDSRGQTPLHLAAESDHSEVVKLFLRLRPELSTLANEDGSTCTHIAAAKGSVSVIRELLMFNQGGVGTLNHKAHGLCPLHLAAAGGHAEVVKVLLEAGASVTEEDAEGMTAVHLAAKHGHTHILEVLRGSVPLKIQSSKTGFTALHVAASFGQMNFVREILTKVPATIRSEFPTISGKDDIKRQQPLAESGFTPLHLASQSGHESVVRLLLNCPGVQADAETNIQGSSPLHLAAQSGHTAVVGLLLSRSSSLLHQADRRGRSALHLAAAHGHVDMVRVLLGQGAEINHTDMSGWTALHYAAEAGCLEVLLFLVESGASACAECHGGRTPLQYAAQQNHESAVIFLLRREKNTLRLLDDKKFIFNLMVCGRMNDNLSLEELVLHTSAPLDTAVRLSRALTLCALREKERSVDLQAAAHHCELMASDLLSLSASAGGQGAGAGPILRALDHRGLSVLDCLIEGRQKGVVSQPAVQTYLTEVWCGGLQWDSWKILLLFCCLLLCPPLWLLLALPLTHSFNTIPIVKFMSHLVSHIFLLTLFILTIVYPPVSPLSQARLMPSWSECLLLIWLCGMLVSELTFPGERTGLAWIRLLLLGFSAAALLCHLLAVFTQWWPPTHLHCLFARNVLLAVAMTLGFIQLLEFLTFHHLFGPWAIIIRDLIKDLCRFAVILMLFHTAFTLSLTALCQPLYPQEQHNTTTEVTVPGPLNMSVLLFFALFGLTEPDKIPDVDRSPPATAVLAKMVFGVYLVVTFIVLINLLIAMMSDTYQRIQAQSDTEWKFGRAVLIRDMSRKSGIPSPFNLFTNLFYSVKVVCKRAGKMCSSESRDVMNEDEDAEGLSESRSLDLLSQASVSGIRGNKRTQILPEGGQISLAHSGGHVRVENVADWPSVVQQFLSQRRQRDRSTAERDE

For orientation: EC50 means the concentration at which the effect is half-maximal. Usually AC50 stands for the concentration at which the activity in the assay is half-maximal. A word on the IC50: it is the midpoint of a concentration-inhibition curve. In the case of `C1=C(CCNc2[nH]cnc3c4ccccc4nc2-3)CCCC1`, the EC50 on Mucolipin-3 is > 29.9 µM (not active); at Ion channel NompC, > 29.9 µM (inactive); in the assay “cells”, > 29.9 µM (inactive). In the assay with INS1, the AC50 was 0.219 µM (active). In addition, the IC50 on Galanin receptor type 3 was 0.383 µM (active); on Galanin receptor type 2 it was > 42 µM (not active).
For the molecule `Cc1ccc(C)c(SCC(=O)OC/C(O)=C(\C#N)c2nc3ccccc3[nH]2)c1`, the IC50 in the assay with HEK293 [1] is > 20 µM (inactive); in the assay on HEK293 [3] it was > 20 µM (inactive); in the assay with HEK293 [4] it was > 20 µM (inactive); with HEK293 [6] it was > 20 µM (inactive); in assay [7] it was > 50 µM (not active); in [8], > 50 µM (not active). In addition, the IC50 is 4.92 µM (inactive) in the assay with HEK293 [9]; > 20 µM (inactive) at Tumor necrosis factor [10]; > 20 µM (inactive) in assay [11]; > 20 µM (inactive) on Tumor necrosis factor [12]; 4.21 µM (active) in assay [13]; > 20 µM (inactive) with HEK293 [14]. Further, the IC50 in assay [15] is > 20 µM (inactive); in assay [16], 4.55 µM (active). Also, the EC50 (in assay [2]; in the assay on HEK293 [5]) was > 20 µM (inactive) each time.

For the origin of these results see ChEMBL document CHEMBL1201862, “PubChem BioAssay data set” (2004).
